These results are taken from patent US12459951B2, “Compounds that interact with RAS superfamily proteins for treatment of cancers, inflammatory diseases, rasopathies, and fibrotic disease” (SHY Therapeutics, LLC, priority 2022, dated 2025).

One experiment has as its system Erk1/2 phosphorylation. The experiment can be described thus: Erk1/2 Phosphorylation Assay (western blot), Panc-1. The format is cell-based, human. The conditions noted are these: at 10 μM, * = activation. The method, boiled down: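 Phospho-Erk1/2 (Thr202/Tyr204) was detected by western blot in lysates of Panc-1 cells (KRas G12D). These had 6 h, 37° C exposure to 10 μM compound or a dilution series for IC50, in 0.3% DMSO. Cells were either starved overnight in 0.5% FBS with a 15-min 1.5 ng/ml EGF pulse, or kept unstimulated in 10% FBS.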

For another experiment, the system named is IL6. The experiment is described as follows: IL-6 Quantification Assay (ELISA), LPS-stimulated RAW 264.7. In kind it is cell-based. Details: inhibition: dose or concentration left out as unconfirmed. The note with it: Mus musculus, RAW264.7; read-out: IL-6: % inh.

`COc1cccc(Nc2nc(-c3nccn3C)nn3ccc(C)c23)n1` [Compound 38, N-(6-Methoxypyridin-2-yl)-5-methyl-2-(1-methyl-1H-imidazol-2-yl)pyrrolo[2,1-f][1,2,4]triazin-4-amine]: the “% inh of Erk1/2 phosphorylation in Panc-1” value (shortened to “% inh”) with Erk1/2 phosphorylation is reported as 0 (0% inhibition). Further, in the experiment on IL6, the inhibition is 25 to 49%.

Turning to `Cc1c(-c2ccn(C)n2)cn2nc(-c3nccn3C)nc(Nc3cc(-c4ccncc4)[nH]n3)c12` [Compound 266, 5-Methyl-2-(1-methyl-1H-imidazol-2-yl)-6-(1-methyl-1H-pyrazol-3-yl)-N-(5-(pyridin-4-yl)-1H-pyrazol-3-yl)pyrrolo[2,1-f][1,2,4]triazin-4-amine], in the experiment on Erk1/2 phosphorylation, the “% inh” value is “D (85-100% inhibition)”. Further, in the experiment with IL6, the inhibition lay in the range of 25 to 49%.

Take `Cc1c(-c2ccn(C)n2)cn2nc(-c3nccn3C)nc(Nc3ccc(-c4ccccn4)cn3)c12` [Compound 249, N-([2,3′-Bipyridin]-6′-yl)-5-methyl-2-(1-methyl-1H-imidazol-2-yl)-6-(1-methyl-1H-pyrazol-3-yl)pyrrolo[2,1-f][1,2,4]triazin-4-amine]: the “% inh” value with Erk1/2 phosphorylation is listed as “D* (85-100% activation)”. In addition, in the experiment on IL6, the inhibition lay within 75 to 100%.

Regarding `Cc1c(-c2ccn(C)n2)cn2nc(-c3nccn3C)nc(Nc3cc(-c4cccnc4)[nH]n3)c12` [Compound 264, 5-Methyl-2-(1-methyl-1H-imidazol-2-yl)-6-(1-methyl-1H-pyrazol-3-yl)-N-(5-(pyridin-3-yl)-1H-pyrazol-3-yl)pyrrolo[2,1-f][1,2,4]triazin-4-amine], the “% inh” value in the experiment on Erk1/2 phosphorylation was “B* (26-49% activation)”. Also, in the experiment on IL6, the inhibition lay within 75 to 100%.

`COc1cccc(-c2cn3nc(-c4nccn4C)nc(N[C@@H]4CC[C@H]4OC)c3c2-c2ccccc2)c1C` (racemic) [Compound 272, rac 6-(3-Methoxy-2-methylphenyl)-N-((1R,2R)-2-methoxycyclobutyl)-2-(1-methyl-1H-imidazol-2-yl)-5-phenylpyrrolo[2,1-f][1,2,4]triazin-4-amine]: in the experiment with Erk1/2 phosphorylation, the “% inh” value was “D (85-100% inhibition)”. Further, in the experiment with IL6, the inhibition lay within 75 to 100%.

For the molecule `CO[C@H]1C[C@H](Nc2nc(-c3nccn3C)nn3cc(-c4ccn(C)n4)c(C4CC4)c23)C1` [Compound 275, 5-Cyclopropyl-N-((1r,3r)-3-methoxycyclobutyl)-2-(1-methyl-1H-imidazol-2-yl)-6-(1-methyl-1H-pyrazol-3-yl)pyrrolo[2,1-f][1,2,4]triazin-4-amine], the “% inh” value with Erk1/2 phosphorylation is recorded as 0 (0% inhibition). Also, the inhibition in the experiment with IL6 worked out at 0%.

Regarding `Cc1c(-c2ccn(C)n2)cn2nc(-c3nccn3C)nc(Nc3cc(C4CCC4)[nH]n3)c12` [Compound 257, N-(5-Cyclobutyl-1H-pyrazol-3-yl)-5-methyl-2-(1-methyl-1H-imidazol-2-yl)-6-(1-methyl-1H-pyrazol-3-yl)pyrrolo[2,1-f][1,2,4]triazin-4-amine], the “% inh” value in the experiment with Erk1/2 phosphorylation was “C* (46-84% activation)”. In addition, the inhibition with IL6 was in the range of 75 to 100%.

As to `COc1cc(Nc2nc(-c3nccn3C)nn3cc(-c4ccncc4)c(C)c23)ncn1` [Compound 49, N-(6-Methoxypyrimidin-4-yl)-5-methyl-2-(1-methyl-1H-imidazol-2-yl)-6-(pyridin-4-yl)pyrrolo[2,1-f][1,2,4]triazin-4-amine], the “% inh” value in the experiment with Erk1/2 phosphorylation is listed as “B* (26-49% activation)”. Moreover, the inhibition in the experiment with IL6 was in the range of 1 to 24%.

On to `Cc1cc(Nc2nc(-c3nccn3C)nn3cc(-c4ccn(C)n4)c(C)c23)n[nH]1` [Compound 255, 5-Methyl-2-(1-methyl-1H-imidazol-2-yl)-6-(1-methyl-1H-pyrazol-3-yl)-N-(5-methyl-1H-pyrazol-3-yl)pyrrolo[2,1-f][1,2,4]triazin-4-amine], for which the “% inh” value in the experiment with Erk1/2 phosphorylation is given as “A (1-25% inhibition)”. Further, the inhibition with IL6 is 50 to 74%.

For the molecule `COc1cccc(-c2cn3nc(-c4nccn4C)nc(N[C@H]4C[C@@H](OC)C4)c3c2-c2ccccc2)c1C` [Compound 269, 6-(3-Methoxy-2-methylphenyl)-N-((1s,3s)-3-methoxycyclobutyl)-2-(1-methyl-1H-imidazol-2-yl)-5-phenylpyrrolo[2,1-f][1,2,4]triazin-4-amine], the “% inh” value in the experiment on Erk1/2 phosphorylation was “D (85-100% inhibition)”. For the same molecule, the inhibition in the experiment with IL6 is 75 to 100%.

Consider `CCOc1cc(Nc2nc(-c3nccn3C)nn3cc(-c4ccn(C)n4)c(C)c23)n[nH]1` [Compound 260, N-(5-Ethoxy-1H-pyrazol-3-yl)-5-methyl-2-(1-methyl-1H-imidazol-2-yl)-6-(1-methyl-1H-pyrazol-3-yl)pyrrolo[2,1-f][1,2,4]triazin-4-amine], for which the “% inh” value with Erk1/2 phosphorylation was “A* (1-25% activation)”. In the experiment on IL6, the inhibition was in the range of 75 to 100%.

Consider `Cc1c(-c2ccn(C)n2)cn2nc(-c3nccn3C)nc(Nc3cc(OC(F)F)n(C)n3)c12` [Compound 254, N-(5-(Difluoromethoxy)-1-methyl-1H-pyrazol-3-yl)-5-methyl-2-(1-methyl-1H-imidazol-2-yl)-6-(1-methyl-1H-pyrazol-3-yl)pyrrolo[2,1-f][1,2,4]triazin-4-amine], for which the “% inh” value with Erk1/2 phosphorylation was “D* (85-100% activation)”. The inhibition with IL6 fell in the range of 25 to 49%.

In the case of `Cc1c(-c2ccn(C)n2)cn2nc(-c3nccn3C)nc(Nc3cc[nH]n3)c12` [Compound 256, 5-Methyl-2-(1-methyl-1H-imidazol-2-yl)-6-(1-methyl-1H-pyrazol-3-yl)-N-(1H-pyrazol-3-yl)pyrrolo[2,1-f][1,2,4]triazin-4-amine], the “% inh” value in the experiment with Erk1/2 phosphorylation is given as “C (50-84% inhibition)”. Moreover, the inhibition with IL6 lay within 50 to 74%.

For the molecule `COc1cc(Nc2nc(-c3nccn3C)nn3cc(-c4cccnc4)c(C)c23)ncn1` [Compound 48, N-(6-Methoxypyrimidin-4-yl)-5-methyl-2-(1-methyl-1H-imidazol-2-yl)-6-(pyridin-3-yl)pyrrolo[2,1-f][1,2,4]triazin-4-amine], the “% inh” value in the experiment on Erk1/2 phosphorylation is recorded as “A (1-25% inhibition)”. For the same molecule, in the experiment with IL6, the inhibition lay within 1 to 24%.

Consider `COc1cc(Nc2nc(-c3nccn3C)nn3cc(-c4ccn(C)n4)c(C)c23)ncc1-n1cnc(C)c1` [Compound 244, N-(4-Methoxy-5-(4-methyl-1H-imidazol-1-yl)pyridin-2-yl)-5-methyl-2-(1-methyl-1H-imidazol-2-yl)-6-(1-methyl-1H-pyrazol-3-yl)pyrrolo[2,1-f][1,2,4]triazin-4-amine], for which the “% inh” value in the experiment on Erk1/2 phosphorylation is reported as 0 (0% inhibition). In the experiment with IL6, the inhibition came to 0%.

With `Cc1c(-c2ccn(C)n2)cn2nc(-c3nccn3C)nc(-n3[nH]c(N)cc3=O)c12` [Compound 261, 5-Amino-2-(5-methyl-2-(1-methyl-1H-imidazol-2-yl)-6-(1-methyl-1H-pyrazol-3-yl)pyrrolo[2,1-f][1,2,4]triazin-4-yl)-1,2-dihydro-3H-pyrazol-3-one], the “% inh” value with Erk1/2 phosphorylation was “B (26-49% inhibition)”. Moreover, the inhibition in the experiment on IL6 was 50 to 74%.

As for `Cc1c(-c2ccn(C)n2)cn2nc(-c3nccn3C)nc(Nc3cc(-c4ccccn4)[nH]n3)c12` [Compound 265, 5-Methyl-2-(1-methyl-1H-imidazol-2-yl)-6-(1-methyl-1H-pyrazol-3-yl)-N-(5-(pyridin-2-yl)-1H-pyrazol-3-yl)pyrrolo[2,1-f][1,2,4]triazin-4-amine], the “% inh” value with Erk1/2 phosphorylation is given as “A* (1-25% activation)”. Besides, the inhibition in the experiment with IL6 was in the range of 75 to 100%.

As for `COc1cc(-c2cn3nc(-c4nccn4C)nc(Nc4cc(OC)ncn4)c3c2C)ccn1` [Compound 50, 6-(2-Methoxypyridin-4-yl)-N-(6-methoxypyrimidin-4-yl)-5-methyl-2-(1-methyl-1H-imidazol-2-yl)pyrrolo[2,1-f][1,2,4]triazin-4-amine], the “% inh” value in the experiment on Erk1/2 phosphorylation is reported as “B* (26-49% activation)”. In addition, the inhibition in the experiment on IL6 lay in the range of 1 to 24%.

On to `Cc1c(-c2ccn(C)n2)cn2nc(-c3nccn3C)nc(Nc3cc(-n4ccnc4)ccn3)c12` [Compound 245, N-(4-(1H-imidazol-1-yl)pyridin-2-yl)-5-methyl-2-(1-methyl-1H-imidazol-2-yl)-6-(1-methyl-1H-pyrazol-3-yl)pyrrolo[2,1-f][1,2,4]triazin-4-amine], for which, in the experiment with Erk1/2 phosphorylation, the “% inh” value is given as 0 (0% inhibition). Moreover, the inhibition with IL6 was 25 to 49%.

For the molecule `COc1ccc(Nc2nc(-c3nccn3C)nn3cc(-c4ccn(C(C)C)n4)c(C)c23)nn1` [Compound 74, 6-(1-Isopropyl-1H-pyrazol-3-yl)-N-(6-methoxypyridazin-3-yl)-5-methyl-2-(1-methyl-1H-imidazol-2-yl)pyrrolo[2,1-f][1,2,4]triazin-4-amine], the “% inh” value in the experiment on Erk1/2 phosphorylation was “D* (85-100% activation)”. Besides, the inhibition with IL6 was in the range of 1 to 24%.

On to `COc1cc(Nc2nc(-c3nccn3C)nn3cc(-c4ccn(C)n4)c(C)c23)n[nH]1` [Compound 252, N-(5-Methoxy-1H-pyrazol-3-yl)-5-methyl-2-(1-methyl-1H-imidazol-2-yl)-6-(1-methyl-1H-pyrazol-3-yl)pyrrolo[2,1-f][1,2,4]triazin-4-amine], for which the “% inh” value in the experiment on Erk1/2 phosphorylation is “A* (1-25% activation)”. Besides, the inhibition with IL6 was 1 to 24%.

In the case of `COc1cccc(-c2cn3nc(-c4nccn4C)nc(N[C@H]4C[C@H](OC)C4)c3c2-c2ccccn2)c1C` [Compound 274, 6-(3-Methoxy-2-methylphenyl)-N-((1r,3r)-3-methoxycyclobutyl)-2-(1-methyl-1H-imidazol-2-yl)-5-(pyridin-2-yl)pyrrolo[2,1-f][1,2,4]triazin-4-amine], in the experiment with Erk1/2 phosphorylation, the “% inh” value is “D (85-100% inhibition)”. Moreover, the inhibition in the experiment with IL6 lay in the range of 75 to 100%.

For `Cc1c(-c2ccn(C)n2)cn2nc(-c3nccn3C)nc(Oc3cc(N)[nH]n3)c12` [Compound 262, 3-((5-Methyl-2-(1-methyl-1H-imidazol-2-yl)-6-(1-methyl-1H-pyrazol-3-yl)pyrrolo[2,1-f][1,2,4]triazin-4-yl)oxy)-1H-pyrazol-5-amine], the “% inh” value with Erk1/2 phosphorylation was “A (1-25% inhibition)”. In addition, the inhibition with IL6 was 1 to 24%.
